The target in assay [1] is T1, 5-Lipoxygenase (Homo sapiens, UniProt P09917).
T1 construct: from tissue; host or cells: whole blood of male human donors (endogenous enzyme of the leukocytes)
T1 sequence (P09917 1-674): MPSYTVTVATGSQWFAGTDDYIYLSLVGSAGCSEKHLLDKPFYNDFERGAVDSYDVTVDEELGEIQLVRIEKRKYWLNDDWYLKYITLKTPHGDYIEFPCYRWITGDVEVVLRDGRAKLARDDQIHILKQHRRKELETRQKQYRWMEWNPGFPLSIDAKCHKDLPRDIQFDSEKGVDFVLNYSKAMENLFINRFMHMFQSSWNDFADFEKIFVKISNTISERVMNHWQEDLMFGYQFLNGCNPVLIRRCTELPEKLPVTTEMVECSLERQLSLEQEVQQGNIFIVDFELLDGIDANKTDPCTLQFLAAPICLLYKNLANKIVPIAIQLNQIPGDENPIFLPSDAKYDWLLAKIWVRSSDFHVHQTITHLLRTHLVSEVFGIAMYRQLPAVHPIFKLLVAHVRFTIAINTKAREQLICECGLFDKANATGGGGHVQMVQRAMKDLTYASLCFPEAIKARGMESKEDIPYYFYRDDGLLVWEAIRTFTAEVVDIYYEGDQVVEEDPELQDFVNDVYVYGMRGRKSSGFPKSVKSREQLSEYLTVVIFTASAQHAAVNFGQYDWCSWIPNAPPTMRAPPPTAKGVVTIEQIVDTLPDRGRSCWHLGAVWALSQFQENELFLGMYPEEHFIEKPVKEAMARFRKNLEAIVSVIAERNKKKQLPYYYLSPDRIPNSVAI
Nature of the assay: Inhibition of 5-Lipoxygenase in Human Whole Blood (LTB4, calcium ionophore A23187). The assay is classed as cell-based. As for the experimental part:
1. Inhibition of 5-Lipoxygenase in Human Whole Blood
Blood is obtained in 50-100 ml quantities from male donors. White blood cell counts and differentials are made. Two ml of blood are placed in a 15 ml polypropylene test tube. Test compounds are solubilized in dimethylsulfoxide and diluted in 1:10 in 10% bovine serum albumin in phosphate buffered saline, pH 7.4 resulting in a final dimethylsulfoxide concentration of 0.1% in the blood. Then, solutions of test compounds are added to the blood in a shaking water bath at 37° C. for 10 minutes prior to the addition of 30 μM calcium ionophore (A23187, Sigma). After ionophore administration, whole blood samples are mixed and incubated for 20 minutes at 37° C. in a shaking water bath. Incubation is terminated by placing samples in an ice bath and immediately adding ethylene glycol-bis-(β-aminoethyl ether)-N, N,N',N'-tetraacetic acid (10 mM). Samples are mixed and centrifuged at 1200× g for 15 minutes at 4° C. Preparation of samples for evaluation by RIA or ELISA is carried out by the following protocol. Plasma is removed from sample tubes, placed in 15 ml polypropylene test tubes containing 8 ml methanol, and then vortexed to precipitate protein. Samples are stored at -70° C. overnight. The next day, samples are centrifuged at 200× g for 15 minutes at 4° C. to pellet the precipitate. Samples are dried in a Savant SpeedVac Concentrator, Model SVC 200H, reconstituted to original volume with ice cold RIA or ELISA buffer, and stored at -70° C. until assayed. The assay for eicosanoids (LTB4, T×B2, and PGE2) is performed as described by the manufacturer of the ^3 H!-RIA kit or ELISA kit (LTB4 -Amersham, T×B2 and PGE2 -Caymen Chemical).
The total eicosanoid level in 2 ml of blood is calculated and reported as ng/10^6 neutrophils. Significance is determined by a one-way analysis of variance with least significant difference (LSD) comparisons to control (p≤0.05) and IC50 's (μM) are determined by regression analysis (Finney, 1978). Drug effects are expressed as percent change from control values.

The test system of assay [2] is LT-dependent bronchoconstriction. Nature of the assay: Inhibition of Bronchoconstriction in Guinea Pigs Induced by Exogenously Administered Antigen (ovalbumin). As to conditions: Cavia porcellus, iv, 5 min; 10 mg/kg. The assay is classed as in vivo, Male guinea pigs. As for the experimental part:
4. Inhibition of Brochoconstriction in Guinea Pigs Induced by Exogenously Administered Antigen
Male guinea pigs (Charles River, Wilmington, Mass.) were sensitized 3-4 weeks prior to antigen challenge by administration of 2 i.m. injections of ovalbumin, 1 into each hind limb (35 mg total). Sensitized animals (500-600 g) were fasted overnight prior to experimentation. Conscious animals were then dosed p.o. with drug or vehicle alone (0.5% Tween 80 in H2 O) at the indicated times prior to antigen challenge, or anesthetized animals were dosed i.v. with drug or vehicle alone (DMSO) 5 min prior to antigen challenge. Animals were anesthetized by urethane (2.8 g/kg i.p.). A carotid artery and jugular vein were cannulated to allow for the monitoring of blood pressure and the administration of drugs, respectively. The trachea was then cannulated and connected to a Harvard Apparatus rodent ventilator (S. Natick, Mass). Spontaneous respiration was abolished by the administration of succinylcholine (2.5 mg/kg i.v.). The animals were then ventilated with room air at a rate of 65 breaths per min. Airway inflation pressure was measured using a Statham pressure transducer (Gould Instruments, Cleveland, Ohio) connected to the tracheal cannula via a side-arm and recorded on a Grass Instruments recorder (Quincy, Mass). The tidal volume (approximately 10 cc/kg) was adjusted to give a baseline inflation pressure of 8-10 cm H2 O at end inspiration. Animals were then allowed 20 min to stabilize.
Following the stabilization period, animals were given i.v. injections of pyrilamine (5 mg/kg), propranolol (0.1 mg/kg) and indomethacin (10 mg/kg) at 15, 10 and 5 min, respectively, prior to antigen challenge. This pretreatment results in an LT-dependent bronchoconstriction following antigen challenge, which was accomplished by i.v. administration of ovalbumin (10 mg/kg). Only one bronchoconstriction per animal was induced. End-inspiratory inflation pressure (in cm H2 O over baseline) was measured at 5 min post-antigen challenge. A mean value and standard error for the % inhibition of control bronchoconstriction in each drug-treated group was then calculated.

Assay [3] deals with Lipoxygenase. Kind of assay: Ex-Vivo Measurement of Lipoxygenase Inhibition in Orally Dosed Rats (LTB4 in A23187-stimulated blood). Further details: species or system Male Sprague Dawley rats. The note with it: 10 mg/kg, p.o.; pretreatment period 6 hr. As to the method:
2. Ex-Vivo Measurement of Lipoxygenase Inhibition in Orally Dosed Rats
After an interval of 3 or 6 hours, the rats were anesthetized with metofane (n=4/group) and blood collected in heparinized tubes. White blood cell counts and differentials were made. One ml of blood from each animal was placed in a 5 ml plastic tube in a shaker bath at 37° C. A23187 at a final concentration of 10 μM was added to the blood and the blood vortexed and incubated for 15 min at 37° C. with gentle shaking. Incubation was terminated by vortexing sample and centrifuging immediately at 1200× G for 15 min at 4° C. The plasma was transferred to 15 ml plastic tubes each containing 8 ml of methanol to precipitate protein followed by vortexing. The samples were stored at -70° C. overnight and the next day the samples were centrifuged at 800× G for 15 min to pellet the precipitate. The samples were dried in a Savant SpeedVac Concentrator Model SVC 200H and reconstituted to the original volume with cold RIA or ELISA buffer. The reconstituted samples were stored at -70° C. until assayed. The assay for LTB4 was performed according to the directions of the ^3 H!RIA kit or ELISA kit (Seragen). The total metabolite level in 1 ml of blood is calculated and reported as ng/10^6 neutrophils. Significance is determined by a one-way analysis of variance with LSD comparisons to control (p≤0.05).

Counter-ions that a name gives are not always drawn.

For orientation: inhibition means the relative decrease from the control value, in per cent. The inhibition in vivo is the share of the control response that was lost under treatment. Low readings indicate a weak effect, high ones a strong effect.

Regarding `Cc1oc(-c2ccc(OCC(F)(F)F)cc2)nc1COc1ccc(CN(O)C(N)=O)cc1` [Example 7, 1-Hydroxy-1-4-5-methyl-2-(4-trifluoroethoxy-phenyl)-oxazol-4-ylmethoxy!-benzyl!-urea], in assay [1], the inhibition at 1 µM was 74%. The compound further came in with an inhibition in vivo at 10 mg/kg in assay [2] of 24%.

On to `Cc1oc(-c2ccccc2)nc1COc1ccc(C(C)N(O)C(N)=O)cc1` (stereo not shown) [Example 8, 1-Hydroxy-1-1- -4(5-methyl-2-phenyl-oxazol-4-ylmethoxy)-phenyl!-ethyl!-urea], for which the inhibition at 10 µM in assay [1] (10 μM) was 57%.

As for `NC(=O)N(O)Cc1ccc(OCc2coc(-c3ccc(C(F)(F)F)cc3)n2)cc1` [Example 11, 1-Hydroxy-1-4-2-(4-trifluoromethyl-phenyl)-oxazol-4-ylmethoxy!-benzyl!-urea], in assay [1], the inhibition at 1 µM is 32%. In assay [3], the “% Inhibition of LTB4” value worked out at 68%.

For the compound `NC(=O)N(O)Cc1ccc(OCc2csc(-c3ccc(C(F)(F)F)cc3)n2)cc1` [Example 12, 1-Hydroxy-1-4-2-(4-trifluoromethyl-phenyl)-thiazol-4-yl-methoxy!-benzyl!urea], the inhibition at 1 µM in assay [1] amounted to 56%. Moreover, in assay [2], the inhibition in vivo at 10 mg/kg stood at 30%.

For the compound `O=C(Nc1ccc(F)cc1)N(O)Cc1ccc(OCc2csc(-c3ccc(C(F)(F)F)cc3)n2)cc1` [Example 13, 3-(4-Fluoro-phenyl)-1-hydroxy-1-4-2-(4-trifluoromethyl-phenyl)-thiazol-4-ylmethoxy!-benzyl!-urea], the inhibition at 1 µM in assay [1] was found to be 38%.

For `NC(=S)N(O)Cc1ccc(OCc2csc(-c3ccc(Cl)cc3)n2)cc1` [Example 15, 1-Hydroxy-1-4-2-(4-chloro-phenyl)-thiazol-4-ylmethoxy!-benzyl!-thiourea], the inhibition at 1 µM in assay [1] was determined as 57%. In addition, in assay [2], testing at 10 mg/kg gave an inhibition in vivo of 21%.

Regarding `CCCCCCNC(=O)N(O)Cc1ccc(OCc2csc(-c3ccc(Cl)cc3)n2)cc1` [Example 16, 1-4-2-(4-chloro-phenyl)-thiazol-4-ylmethoxy!-benzyl!-3-hexyl-1-hydroxy-urea], the inhibition at 10 µM in assay [1] (10 μM) is 36%.

Regarding `COc1ccc(-c2nc(COc3ccc(CN(O)C(N)=O)cc3)cs2)cc1` [Example 17, 1-Hydroxy-1-4-2-(4-methoxy-phenyl)-thiazol-4-ylmethoxy!-benzyl!-urea], the inhibition at 1 µM in assay [1] worked out at 56%. For the same compound, the “% Inhibition of LTB4” value in assay [3] came to 69%. For the same compound, in assay [2], the inhibition in vivo at 10 mg/kg was 50%.

For the compound `Cc1oc(-c2ccccc2)nc1COc1ccc(C(O)CN(O)C(N)=O)cc1` (stereo not shown) [Example 18, 1-Hydroxy-1-2-hydroxy-2-4-(5-methyl-2-phenyl-oxazol-4-ylmethoxy)-phenyl!-ethyl!-urea], the inhibition at 10 µM in assay [1] (10 μM) was 86%.

On to `Cc1oc(-c2ccc(C(F)(F)F)cc2)nc1COc1ccc(CN(O)C(=O)NN)cc1` [Example 19, 4-Hydroxy-4-4-5-methyl-2-(4-trifluoromethyl-phenyl)-oxazol-4-ylmethoxy!-benzyl!-semicarbazide], for which, in assay [1] (10 μM), the inhibition at 10 µM was 50%.

Consider `CC(C)=NNC(=O)N(O)Cc1ccc(OCc2nc(-c3ccc(C(F)(F)F)cc3)oc2C)cc1` [Example 20, 1-Isopropylidine-4-hydroxy-4-4-5-methyl-2-(4-trifluoromethylphenyl)oxazol-4-ylmethoxy!-benzyl!-semicarbazone], for which, in assay [1] (10 μM), the inhibition at 10 µM was determined as 78%.

`NNC(=O)N(O)Cc1ccc(OCc2csc(-c3ccccc3)n2)cc1` [Example 21, 4-Hydroxy-4-4-(2-phenyl-thiazol-4-ylmethoxy)-benzyl!-semicarbazide]: in assay [1] (10 μM), the inhibition at 10 µM turned out to be 94%.

`NNC(=O)N(O)Cc1ccc(OCc2csc(-c3ccccc3)n2)cc1` [Example 22, 4-Hydroxy-4-4-(2-phenyl-thiazol-4-ylmethoxy)-benzyl!-semicarbazide hydrochloride]: the “% Inhibition of LTB4” value in assay [1] (10 μM, hydrochloride) was found to be 80%.

The values above are taken from US5504097A, “N-hydroxyureas as 5-lipoxygenase inhibitors and inhibitors of oxidative modification of low density lipoprotein” (American Home Products Corporation, priority 1995, dated 1996).
